Data set [1] has as its system Candida albicans. The data set can be described thus: Antifungal activity against Candida albicans ATCC 90028 assessed as growth inhibition after 24 hrs by microbroth dilution method. The format is functional. The following applies: ATCC 90028, 24 h. For orientation: In broth dilution the organism is exposed to a series of concentrations in liquid medium.
Data set [2] in a line: Hemolytic activity in Swiss mouse erythrocytes at 50 ug/mL after 1 hr by spectrophotometric analysis relative to control. The format is ADME, cell-based, Erythrocyte. The following applies: read-out: Activity.
Data set [3] deals with Candida parapsilosis. Put plainly: Antifungal activity against Candida parapsilosis assessed as growth inhibition at 250 ug/mL after 24 hrs by hole plate diffusion method. The format is functional. The settings on record: Lodderomyces parapsilosis, read-out: IZ.
Data set [4] relates to Pichia kudriavzevii. Put plainly: Antifungal activity against Candida krusei assessed as growth inhibition after 24 hrs by microbroth dilution method. The format is functional.
For data set [5], the system named is Candida parapsilosis. Put plainly: Antifungal activity against Candida parapsilosis assessed as growth inhibition after 24 hrs by microbroth dilution method. The format is functional. The following applies: Lodderomyces parapsilosis.
In data set [6] the test system is Candida albicans. Put plainly: Antifungal activity against Candida albicans assessed as growth inhibition at 250 ug/mL after 24 hrs by hole plate diffusion method. The format is functional. The settings on record: read-out: IZ.
Data set [7] relates to Kluyveromyces marxianus. The data set can be described thus: Antifungal activity against Candida kefyr assessed as growth inhibition after 24 hrs by microbroth dilution method. Format: functional.
Data set [8] concerns Candida tropicalis. The data set can be described thus: Antifungal activity against Candida tropicalis assessed as growth inhibition after 24 hrs by microbroth dilution method. The format is functional.
The subject of data set [9] is Pichia kudriavzevii. The data set can be described thus: Antifungal activity against Candida krusei assessed as growth inhibition at 250 ug/mL after 24 hrs by hole plate diffusion method. The format is functional. The settings on record: read-out: IZ.
Data set [10] relates to Kluyveromyces marxianus. The data set can be described thus: Antifungal activity against Candida kefyr assessed as growth inhibition at 250 ug/mL after 24 hrs by hole plate diffusion method. The format is functional. The following applies: read-out: IZ.
Data set [11] concerns Candida dubliniensis. The data set can be described thus: Antifungal activity against Candida dubliniensis assessed as growth inhibition after 24 hrs by microbroth dilution method. Format: functional.
For data set [12], the system named is Candida albicans. Put plainly: Antifungal activity against Candida albicans assessed as growth inhibition after 24 hrs by microbroth dilution method. The format is functional.
The subject of data set [13] is Candida tropicalis. The data set can be described thus: Antifungal activity against Candida tropicalis assessed as growth inhibition at 250 ug/mL after 24 hrs by hole plate diffusion method. Format: functional. The settings on record: read-out: IZ.
The subject of data set [14] is Candida dubliniensis. Put plainly: Antifungal activity against Candida dubliniensis assessed as growth inhibition at 250 ug/mL after 24 hrs by hole plate diffusion method. The following applies: read-out: IZ. Format: functional.
A short description of data set [15]: Cytotoxicity against mouse NIH/3T3 cells assessed as dead cells at 12.5 ug/mL after 72 hrs by Alamar Blue assay relative to control. Format: cell-based. The settings on record: nih3t3, 72 h.

One may read the MIC as the least concentration at which growth counts as inhibited. By mortality is commonly meant the percentage killed.

Each structure is given as a SMILES string. Converted amounts (≈) assume the structure as drawn.

Regarding `O=C1C2=C(OC(c3ccc(Cl)cc3)C2)C(=O)c2ccccc21` (stereo not given), the MIC in data set [1] came to 80.5 µM (≈ 25 µg/mL); in [4], 80.5 µM (≈ 25 µg/mL); in data set [5], 40.2 µM (≈ 12.5 µg/mL); in data set [7], 80.5 µM (≈ 25 µg/mL); in data set [8], 40.2 µM (≈ 12.5 µg/mL); in data set [11], 40.2 µM (≈ 12.5 µg/mL). Further, the MIC in data set [12] was 10.1 µM (≈ 3.12 µg/mL). In addition, in data set [2], the hemolysis at 1 h, 50 ug/mL came out at 1.16%. In addition, the zone of inhibition at 250 µg/mL was 0 mm in [3]; 1.5 mm in data set [6]; 6.14 mm in data set [9]; 5.27 mm in data set [10]; 2.49 mm in data set [13]; 0 mm in [14]. For the same molecule, in data set [15], the mortality is given as 0%.

On to `CC1(C)CC2=C(O1)C(=O)c1ccccc1C2=O`, for which the MIC in data set [1] came to 54.8 µM (≈ 12.5 µg/mL); in data set [4], 13.4 µM (≈ 3.06 µg/mL); in data set [5], 110 µM (≈ 25 µg/mL); in data set [7], 27.4 µM (≈ 6.25 µg/mL); in data set [8], 3.42 µM (≈ 0.781 µg/mL); in [11], 13.7 µM (≈ 3.12 µg/mL). For the same molecule, the MIC in [12] worked out at 0.54 µM (≈ 0.123 µg/mL). Also, the hemolysis at 1 h, 50 ug/mL in data set [2] came out at 2.1%. The zone of inhibition at 250 µg/mL was determined as 9.29 mm in [3]; 21.3 mm in data set [6]; 14.6 mm in data set [9]; 18.4 mm in data set [10]; 5.63 mm in [13]; 15.2 mm in [14]. Moreover, the mortality in data set [15] turned out to be 20%.

As to `O=C1C(=O)c2ccccc2C2=C1CC(c1ccccc1)O2` (stereo not given), the MIC in data set [1] is 90.5 µM (≈ 25 µg/mL); in data set [4], 2.82 µM (≈ 0.779 µg/mL); in data set [5] it was 22.6 µM (≈ 6.25 µg/mL); in data set [7], 5.65 µM (≈ 1.56 µg/mL); in [8] it was 11.3 µM (≈ 3.12 µg/mL); in [11], 5.65 µM (≈ 1.56 µg/mL). The MIC in [12] stood at 45.2 µM (≈ 12.5 µg/mL). The hemolysis at 1 h, 50 ug/mL in data set [2] turned out to be 1.98%. Further, the zone of inhibition at 250 µg/mL in [3] is 7.22 mm; in data set [6] it was 7.37 mm; in data set [9], 12 mm; in [10], 10.8 mm; in data set [13], 5.7 mm; in data set [14] it was 11.9 mm. Also, the mortality in data set [15] is 0%.

Turning to `O=C1C2=C(OC(c3ccccc3)C2)C(=O)c2ccccc21` (stereo not given), the MIC in data set [1] amounted to 90.5 µM (≈ 25 µg/mL); in [4], 90.5 µM (≈ 25 µg/mL); in [5] it was 90.5 µM (≈ 25 µg/mL); in [7] it was 90.5 µM (≈ 25 µg/mL); in [8], 45.2 µM (≈ 12.5 µg/mL); in [11] it was 14.9 µM (≈ 4.12 µg/mL). Also, in data set [12], the MIC worked out at 11.3 µM (≈ 3.12 µg/mL). Further, in data set [2], the hemolysis at 1 h, 50 ug/mL was -1.44%. Besides, the zone of inhibition at 250 µg/mL worked out at 6.88 mm in data set [3]; 17 mm in [6]; 8.29 mm in [9]; 1.96 mm in data set [10]; 7.7 mm in data set [13]; 4.3 mm in data set [14]. Further, the mortality in data set [15] is on record as 0%.

With `O=C1C2=C(OC(c3ccc(F)cc3)C2)C(=O)c2ccccc21` (stereo not given), the MIC in data set [1] turned out to be 85 µM (≈ 25 µg/mL); in data set [4], 85 µM (≈ 25 µg/mL); in data set [5], 42.5 µM (≈ 12.5 µg/mL); in data set [7], 85 µM (≈ 25 µg/mL); in data set [8], 42.5 µM (≈ 12.5 µg/mL); in data set [11], 42.5 µM (≈ 12.5 µg/mL). Moreover, in data set [12], the MIC is 21.2 µM (≈ 6.25 µg/mL). The hemolysis at 1 h, 50 ug/mL in data set [2] was -1.95%. For the same molecule, the zone of inhibition at 250 µg/mL amounted to 3.86 mm in data set [3]; 10.3 mm in data set [6]; 9.12 mm in data set [9]; 7.28 mm in data set [10]; 3.31 mm in data set [13]; 2.66 mm in data set [14]. Also, in [15], the mortality is 0%.

As to `O=C1C(=O)c2ccccc2C2=C1CC1(C=CC=C1)O2`, the MIC in data set [1] worked out at 13.1 µM (≈ 3.28 µg/mL); in [4], 13.1 µM (≈ 3.28 µg/mL); in data set [5], 13.1 µM (≈ 3.28 µg/mL); in data set [7], 26.2 µM (≈ 6.56 µg/mL); in [8] it was 3.27 µM (≈ 0.818 µg/mL); in data set [11], 6.55 µM (≈ 1.64 µg/mL). The MIC in [12] was found to be 6.55 µM (≈ 1.64 µg/mL). In addition, the hemolysis at 1 h, 50 ug/mL in [2] is -1.63%. Besides, the zone of inhibition at 250 µg/mL in [3] came out at 6.14 mm; in data set [6], 5.85 mm; in data set [9], 8.8 mm; in [10] it was 10.7 mm; in [13], 7.19 mm; in data set [14], 18.5 mm. Further, the mortality in data set [15] is listed as 8%.

For `Cc1ccc(C2CC3=C(O2)c2ccccc2C(=O)C3=O)cc1` (stereo not given), the MIC came out at 10.8 µM (≈ 3.13 µg/mL) in [1]; 5.39 µM (≈ 1.56 µg/mL) in data set [4]; 10.8 µM (≈ 3.13 µg/mL) in data set [5]; 5.39 µM (≈ 1.56 µg/mL) in data set [7]; 43.1 µM (≈ 12.5 µg/mL) in data set [8]; 2.69 µM (≈ 0.781 µg/mL) in data set [11]. Further, in data set [12], the MIC was 10.8 µM (≈ 3.13 µg/mL). Also, the hemolysis at 1 h, 50 ug/mL in data set [2] came to 5.28%. Besides, the zone of inhibition at 250 µg/mL in data set [3] stood at 0 mm; in data set [6], 0.39 mm; in [9], 5.77 mm; in [10] it was 0 mm; in data set [13], 2.26 mm; in data set [14], 6.44 mm. For the same molecule, the mortality in data set [15] is on record as 0%.

As for `O=C1C(=O)c2ccccc2C2=C1CC(c1ccc(F)cc1)O2` (stereo not given), the MIC in data set [1] worked out at 85 µM (≈ 25 µg/mL); in data set [4] it was 10.6 µM (≈ 3.12 µg/mL); in data set [5] it was 42.5 µM (≈ 12.5 µg/mL); in data set [7], 42.5 µM (≈ 12.5 µg/mL); in [8], 42.5 µM (≈ 12.5 µg/mL); in data set [11], 42.5 µM (≈ 12.5 µg/mL). Further, the MIC in data set [12] came to 42.5 µM (≈ 12.5 µg/mL). Moreover, the hemolysis at 1 h, 50 ug/mL in data set [2] was -0.202%. Moreover, the zone of inhibition at 250 µg/mL in data set [3] came out at 8.12 mm; in [6], 1.37 mm; in [9], 9.8 mm; in data set [10], 8.96 mm; in data set [13] it was 8.59 mm; in data set [14], 1.7 mm. In addition, the mortality in [15] is 0%.

These data come from ChEMBL document CHEMBL3217477, “Synthesis and biological evaluation of substituted - and -2,3-dihydrofuran naphthoquinones as potent anticandidal agents” (Medchemcomm, 2010).
